Here are results for four compounds from PubChem BioAssay AID493010 (Sanford-Burnham Center for Chemical Genomics, 2011).

The subject of this data set is 1x PBS pH 7.4 stability, LC/MS/MS, 48 h RT. Put plainly: chemical stability in phosphate buffer, ADME assay, biochemical, 1x PBS, pH 7.4 (AID 493010). As to conditions: stronger effect = lower value.
Turning to `CC(C)(C)c1ccc(C(=O)Nc2cc(Cl)c(Br)cc2C(=O)O)cc1`, the percent remaining was 108%.
Under `COc1cccc(C2=NN(c3ccc(S(N)(=O)=O)cc3)C(c3ccc(Br)cc3)C2)c1` (centres undefined) stands 10.6%; under `COc1ccc(C2CC(c3ccccc3)=NN2c2ccc(S(N)(=O)=O)cc2)cc1` (centres undefined), 27%; under `CC(C)(C)c1ccc(C(=O)Nc2cc(Cl)c(Cl)cc2C(=O)O)cc1`, 124%.
